Data on 7 compounds can be found in patent US7727967B2, “Cyanooxime inhibitors of carbonyl reductase and methods of using said inhibitors in treatments involving anthracyclines” (Boise State University, priority 2006, dated 2010).

The test system of data set [1] is A549 adenocarcinoma cells. The following applies: coadministered with daunorubicin; cited from earlier work.
In data set [2] the target is T1, carbonyl reductase (Homo sapiens, UniProt P16152).
T1 sequence (P16152 1-277): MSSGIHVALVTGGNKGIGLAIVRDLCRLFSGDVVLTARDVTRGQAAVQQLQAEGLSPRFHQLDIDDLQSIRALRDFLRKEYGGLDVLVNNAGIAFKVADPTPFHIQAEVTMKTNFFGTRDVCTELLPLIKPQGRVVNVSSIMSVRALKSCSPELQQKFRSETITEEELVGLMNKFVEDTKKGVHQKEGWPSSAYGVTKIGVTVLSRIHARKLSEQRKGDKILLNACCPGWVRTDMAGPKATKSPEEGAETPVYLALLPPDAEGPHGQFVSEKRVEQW
The following applies: cited from earlier work.

In data set [3] the target is T1, carbonyl reductase. Kind of data set: Inhibition of carbonyl reductase by arylcyanooximes (1/rate vs. 1/substrate, menadione and NADPH as varied substrates). In kind it is biochemical. The following applies: for Ki: uncompetitive against both coenzyme and carbonyl substrates, range over the six compounds, read-out: Kii (intercept inhibition constant). As to the method:
FIG. 6 describes inhibition patterns seen with inhibitors C1, C2, C3, C4, C5, and C6 wherein KII stands for the intercept inhibition constant.
Six arylcyanooximes (C1, C2, C3, C4, C5, and C6) were tested as possible inhibitors for carbonyl reductase. (See the syntheses described earlier in this disclosure). […] See FIGS. 5 A and B, portraying the 1/rate vs. 1/substrate concentration taken with C5, with menadione and NADPH as the varied substrates, respectively. […] Therefore, while compositions comprising C5 are preferred, compositions comprising C1, C2, C3, C4, and/or C6 are also included in embodiments of the invention and are also expected by the inventors to be beneficial in the methods of the invention.

In the case of `CNc1ncnc2c1c(-c1cccc(O)c1)cn2C(C)C` [3-(7-isopropyl-4-(methylamino)-7H-pyrrolo[2,3-d]pyrimidin-5-yl)phenol], the “effect on cytotoxicity of daunorubicin” value in data set [1] is recorded as “enhance the cytotoxicity of daunorubicin”. The “potency as inhibitor of human carbonyl reductase (in words)” value in data set [2] is given as “potent inhibitor”.
By melting point is commonly meant the temperature, or range, at which the solid turns liquid. For the compound `N#CC(=NO)c1ccc(F)cc1F` [C1, oximino(2,4-difluorophenyl)acetonitrile], the melting point is 64 to 65 °C. Further, in data set [3], the “inhibition pattern against the carbonyl substrate” value was “uncompetitive inhibitors”; the “inhibition pattern against both coenzyme and carbonyl substrates” value was “uncompetitive inhibitors”; the Ki fell in the range of 10.8 to 72 µM.
`N#CC(=NO)c1c(F)cccc1F` [C2, oximino(2,6-difluorophenyl)acetonitrile]: the melting point was 99 to 100 °C. Also, in data set [3], the “inhibition pattern against the carbonyl substrate” value is given as “uncompetitive inhibitors”; the “inhibition pattern against both coenzyme and carbonyl substrates” value was “uncompetitive inhibitors”; the Ki fell in the range of 10.8 to 72 µM.
The compound `N#CC(=NO)c1cc(F)ccc1F` [C3, oximino(2,5-difluorophenyl)acetonitrile] returned a melting point of 64 to 67 °C. In data set [3], the “inhibition pattern against the carbonyl substrate” value is “uncompetitive inhibitors”; the “inhibition pattern against both coenzyme and carbonyl substrates” value is given as “uncompetitive inhibitors”; the Ki was 10.8 to 72 µM.
Take `N#CC(=NO)c1c(F)cccc1Cl` [C4, oximino(2-chloro-6-fluorophenyl)acetonitrile]: in data set [3], the “inhibition pattern against the carbonyl substrate” value is listed as “uncompetitive inhibitors”; the “inhibition pattern against both coenzyme and carbonyl substrates” value is recorded as “uncompetitive inhibitors”; the Ki lay in the range of 10.8 to 72 µM.
On to `N#CC(=NO)c1ccc(Cl)cc1Cl` [C5, oximino(2,4-dichlorophenyl)acetonitrile], for which the melting point came out at 151 °C. Also, in data set [3], the “potency as inhibitor of carbonyl reductase (in words)” value is “potent inhibitor”; the “inhibition pattern against the carbonyl substrate” value was “uncompetitive inhibitors”; the “inhibition pattern against both coenzyme and carbonyl substrates” value is given as “uncompetitive inhibitors”; the Ki was in the range of 10.8 to 72 µM. In addition, in data set [3] (NADPH as varied substrate (FIG. 5B)), the “inhibition pattern against NADPH” value is “uncompetitive inhibitor”. The “inhibition pattern against menadione” value in data set [3] (menadione as varied substrate (FIG. 5A)) is recorded as “uncompetitive inhibitor”.
`N#CC(=NO)c1c(Cl)cccc1Cl` [C6, oximino(2,6-dichlorophenyl)acetonitrile] showed a melting point of 94 to 96 °C. In data set [3], the “inhibition pattern against the carbonyl substrate” value is recorded as “uncompetitive inhibitors”; the “inhibition pattern against both coenzyme and carbonyl substrates” value is reported as “uncompetitive inhibitors”; the Ki lay in the range of 10.8 to 72 µM.
